Results from patent US9410182B2, “Phosphatase coupled glycosyltransferase assay” (Bio-Techne Corporation, priority 2010, dated 2016).

Experiments:
Format in all cases: biochemical
CD73 = target: T1, CD73 (Homo sapiens, UniProt P21589); test: Phosphate release from CMP by CD73, malachite green detection; conditions: 0.1 μg CD73, up to 10 nmol nucleotide, 15 minutes, room temperature
T1 construct: purchased R&D Systems
T1 sequence (P21589 27-549): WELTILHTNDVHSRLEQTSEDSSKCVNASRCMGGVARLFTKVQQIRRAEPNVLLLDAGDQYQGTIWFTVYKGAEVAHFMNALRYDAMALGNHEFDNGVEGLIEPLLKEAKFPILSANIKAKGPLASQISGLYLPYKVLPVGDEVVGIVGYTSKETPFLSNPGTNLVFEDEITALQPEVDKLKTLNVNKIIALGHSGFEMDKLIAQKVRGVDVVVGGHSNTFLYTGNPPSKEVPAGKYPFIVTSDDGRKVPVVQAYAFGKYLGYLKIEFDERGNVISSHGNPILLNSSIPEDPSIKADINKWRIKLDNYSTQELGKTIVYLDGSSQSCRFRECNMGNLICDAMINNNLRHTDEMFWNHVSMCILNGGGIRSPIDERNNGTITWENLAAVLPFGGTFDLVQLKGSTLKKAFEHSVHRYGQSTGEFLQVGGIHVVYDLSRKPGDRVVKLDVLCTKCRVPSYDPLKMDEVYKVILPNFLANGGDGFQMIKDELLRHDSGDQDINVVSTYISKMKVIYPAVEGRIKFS
Source text: (§1) The GDP-Fucose, UDP-Glucose, CMP-NeuAc, CMP, UDP and GDP used in the following experiments were obtained from Sigma-Aldrich (St Louis, Mo.). The recombinant human Fut7, ST6Gal1, CD73, CD39L3, non-specific alkaline phosphatase TNAP, recombinant Clostridium Difficile toxin B (TcdB) containing the glycosyltransferase domain and Malachite Green Phosphate Detection Kit were obtained from R&D Systems (Minneapolis, Minn.). The 3′-Sialyl-N-acetyllactosamine was obtained from V-LABS, Inc (Convington, La.). Unless otherwise specified, each glycosyltransferase reaction was performed in 50 μL of a buffer of 25 mM Tris, 150 mM NaCl, 5 mM MgCl2 and 5 mM MnCl2, at pH 7.5 in a 96-well plate at room temperature for 20 minutes. To determine kinetic parameters of each glycosyltransferase, multiple reactions with varied amounts of either glycosyltransferase or substrates were preceded simultaneously in the presence of fixed amounts of all other components, including a phosphatase. A well containing all components except glycosyltransferase served as a blank control for each example. […] The plate was then read at 620 nm with a multi-well plate reader.
(§2) UDP, GDP and CMP are common donors in glycosyltransferase reactions. […] In FIG. 4C, it can be seen that TNAP, at 0.1 μg level, could only quantitatively release phosphate up to 2 nmol of nucleotide input. […]

CD39L3 = target: T2, CD39L3 (Homo sapiens, UniProt O75355); test: Phosphate release from UDP and GDP by CD39L3, malachite green detection; conditions: 0.1 μg CD39L3, up to 10 nmol nucleotide, 15 minutes, room temperature
T2 construct: purchased R&D Systems
T2 sequence (O75355 1-529): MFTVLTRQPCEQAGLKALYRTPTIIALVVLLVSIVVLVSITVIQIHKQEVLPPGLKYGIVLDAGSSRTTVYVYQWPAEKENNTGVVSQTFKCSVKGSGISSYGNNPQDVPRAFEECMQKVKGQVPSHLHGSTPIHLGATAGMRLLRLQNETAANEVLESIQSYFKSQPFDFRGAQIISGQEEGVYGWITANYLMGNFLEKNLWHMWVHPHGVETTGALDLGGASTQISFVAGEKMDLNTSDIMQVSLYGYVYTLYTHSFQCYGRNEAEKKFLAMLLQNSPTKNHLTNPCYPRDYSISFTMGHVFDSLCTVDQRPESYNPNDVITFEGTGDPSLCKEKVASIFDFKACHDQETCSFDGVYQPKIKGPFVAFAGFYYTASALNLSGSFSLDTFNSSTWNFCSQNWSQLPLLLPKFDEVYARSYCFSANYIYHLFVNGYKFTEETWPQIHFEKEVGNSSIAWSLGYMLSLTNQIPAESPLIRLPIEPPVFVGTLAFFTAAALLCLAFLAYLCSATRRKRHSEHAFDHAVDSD
Source text: as §1, §2

TNAP = target: T3, TNAP (Homo sapiens, UniProt P05186); test: Phosphate release from UDP, GDP and CMP by TNAP, malachite green detection; conditions: 1 μg TNAP, up to 10 nmol nucleotide
T3 construct: purchased R&D Systems
T3 sequence (P05186 18-501): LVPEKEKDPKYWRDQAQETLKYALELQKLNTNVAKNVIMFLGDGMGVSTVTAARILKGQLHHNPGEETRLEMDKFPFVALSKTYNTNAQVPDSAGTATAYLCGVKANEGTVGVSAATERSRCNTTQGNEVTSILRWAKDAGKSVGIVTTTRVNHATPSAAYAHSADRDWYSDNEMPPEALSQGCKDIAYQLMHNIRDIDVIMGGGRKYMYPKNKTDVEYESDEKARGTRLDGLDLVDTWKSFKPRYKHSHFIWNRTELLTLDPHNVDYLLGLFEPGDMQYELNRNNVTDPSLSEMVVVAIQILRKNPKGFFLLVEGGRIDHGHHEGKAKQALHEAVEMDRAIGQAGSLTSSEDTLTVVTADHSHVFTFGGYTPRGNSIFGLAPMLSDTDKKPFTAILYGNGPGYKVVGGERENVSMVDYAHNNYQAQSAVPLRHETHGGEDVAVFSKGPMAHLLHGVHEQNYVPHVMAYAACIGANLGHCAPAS
Source text: as §1, §2

ST6Gal 1 = target: T4, ST6Gal 1 (Homo sapiens, UniProt P15907); test: Sialyltransferase activity of ST6Gal 1 assayed with CD73; conditions: for specific activity of ST6Gal 1 against acceptor: 1 mM lactosamine or 4 mM lactose as acceptor, 1 mM CMP-NeuAc, 0.1 μg CD73
T4 construct: purchased R&D Systems
T4 sequence (P15907 1-406): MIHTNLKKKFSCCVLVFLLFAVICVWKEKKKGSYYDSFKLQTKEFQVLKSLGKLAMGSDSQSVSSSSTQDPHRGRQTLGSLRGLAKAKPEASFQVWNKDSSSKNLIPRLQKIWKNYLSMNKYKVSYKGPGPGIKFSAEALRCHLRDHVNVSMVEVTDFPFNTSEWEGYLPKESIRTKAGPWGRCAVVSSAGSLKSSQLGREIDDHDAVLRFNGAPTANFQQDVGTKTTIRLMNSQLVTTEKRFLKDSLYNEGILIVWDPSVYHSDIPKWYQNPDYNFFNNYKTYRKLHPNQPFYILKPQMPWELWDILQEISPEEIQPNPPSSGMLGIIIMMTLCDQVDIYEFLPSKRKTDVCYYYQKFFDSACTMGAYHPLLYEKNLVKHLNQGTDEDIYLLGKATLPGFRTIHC
Source text: The GDP-Fucose, UDP-Glucose, CMP-NeuAc, CMP, UDP and GDP used in the following experiments were obtained from Sigma-Aldrich (St Louis, Mo.). The recombinant human Fut7, ST6Gal1, CD73, CD39L3, non-specific alkaline phosphatase TNAP, recombinant Clostridium Difficile toxin B (TcdB) containing the glycosyltransferase domain and Malachite Green Phosphate Detection Kit were obtained from R&D Systems (Minneapolis, Minn.). The 3′-Sialyl-N-acetyllactosamine was obtained from V-LABS, Inc (Convington, La.). Unless otherwise specified, each glycosyltransferase reaction was performed in 50 μL of a buffer of 25 mM Tris, 150 mM NaCl, 5 mM MgCl2 and 5 mM MnCl2, at pH 7.5 in a 96-well plate at room temperature for 20 minutes. To determine kinetic parameters of each glycosyltransferase, multiple reactions with varied amounts of either glycosyltransferase or substrates were preceded simultaneously in the presence of fixed amounts of all other components, including a phosphatase. A well containing all components except glycosyltransferase served as a blank control for each example. The reactions were stopped by adding 30 μL of Malachite Reagent A and 100 μL of water to each well. The color was developed by adding 30 μL of Malachite Reagent B to each well followed by gently tapping on the edge and incubation for 30 minutes. The plate was then read at 620 nm with a multi-well plate reader.
Sialic acid is negatively charged under normal pH conditions, making sialyltransferases more difficult to assay than other glycosyltransferases. Because both the donor and product are likely negatively charged, separating them by common ion exchange chromatography separation is challenging. In this experiment, ST6Gal 1, a sialyltransferase, was assayed using 0.1 μg CD73 in a 96-well plate. First, enzyme curves were obtained with either 1 mM lactosamine or 4 mM lactose as the acceptor in the presence of 1 mM CMP-NeuAc. The results are shown in FIG. 7, and the specific activities against lactosamine and lactose were determined to be 458 and 41 pmol/min/μg respectively, confirming that the enzyme strongly favors lactosamine structure. The apparent Km and Vmax were determined for one substrate while fixing the other by fitting the data to KaleidaGraph 4 program.

phosphate released from nucleotide by CD39L3 (CD39L3) | phosphate released from nucleotide by TNAP (TNAP) | specific activity of ST6Gal 1 against acceptor (ST6Gal 1) | Compound | also measured
 |  |  | Nc1ccn([C@@H]2O[C@H](COP(=O)(O)O)[C@@H](O)[C@H]2O)c(=O)n1 [CMP] | dephosphorylation of nucleotide by CD73 (CD73): completely
one | about two |  | Nc1nc2c(ncn2[C@@H]2O[C@H](COP(=O)(O)OP(=O)(O)O)[C@@H](O)[C@H]2O)c(=O)[nH]1 [GDP] | 
 |  | 41 pmol/min/µg | OC[C@H]1O[C@@H](O[C@H]2[C@H](O)[C@@H](O)C(O)O[C@@H]2CO)[C@H](O)[C@@H](O)[C@H]1O (stereo partly drawn) [lactose] | 
one | about two |  | O=c1ccn([C@@H]2O[C@H](COP(=O)(O)OP(=O)(O)O)[C@@H](O)[C@H]2O)c(=O)[nH]1 [UDP] | 
 |  | 458 pmol/min/µg | N[C@H]1C(O)O[C@H](CO)[C@@H](O[C@@H]2O[C@H](CO)[C@H](O)[C@H](O)[C@H]2O)[C@@H]1O (stereo partly drawn) [lactosamine] | 
 |  |  | CC(=O)N[C@H]1[C@H]([C@H](O)[C@H](O)CO)O[C@](OP(=O)(O)OC[C@H]2O[C@@H](n3ccc(N)nc3=O)[C@H](O)[C@@H]2O)(C(=O)O)C[C@@H]1O [CMP-NeuAc, CMP-N-Acetylneuraminic acid] | apparent Vmax (ST6Gal 1; donor varied, lactosamine fixed at 1 mM): 710 ± 16 pmol/min/µg; Km (ST6Gal 1; donor varied, lactosamine fixed at 1 mM, read-out: apparent Km): 530 ± 40 µM
